Measurements reported in patent publication US20120264685A1 (priority 2009, published 2012).
Where a SMILES comes first, the peptide text is derived from it. Where no end group is shown, it is not given here. [ ]: non-standard residue; d: D form. ξ: configuration not given here. ξαMeBip(2'-Et,4'-OMe) = CCc1cc(OC)ccc1-c1ccc(CC(C)(N)C(=O)O)cc1; αMePhe(2,6-F2) = C[C@](N)(Cc1c(F)cccc1F)C(=O)O; ξαMePhe(2,6-F2) = CC(N)(Cc1c(F)cccc1F)C(=O)O; αMePhe(2-F) = C[C@](N)(Cc1ccccc1F)C(=O)O; αMeBip(OMe) = alpha-methylated Bip(OMe); ξαMePhe(2-F) = CC(N)(Cc1ccccc1F)C(=O)O; hhPhe = N[C@@H](CCCc1ccccc1)C(=O)O; ξhhPhe = NC(CCCc1ccccc1)C(=O)O; ξαMeD = CC(N)(CC(=O)O)C(=O)O; αMeP = C[C@@]1(C(=O)O)CCCN1; ξαMeP = CC1(C(=O)O)CCCN1; Ac5c = NC1(C(=O)O)CCCC1; Ac3c = NC1(C(=O)O)CC1; Aib = CC(C)(N)C(=O)O

Assays:
[1] = system: RIN5F (Rat Insulinoma) cells; experiment: In vitro glucose-dependent insulin secretion (RIN5F cell assay); type: cell-based; details: 16.7-mM glucose load, n = 3, mean ± S.D.
Procedure: RIN5F (Rat Insulinoma) cells were cultured in RPMI 1640 medium supplemented with sodium pyruvate (1 mM) HEPES and Glucose (4.5 g/L) in a humidified incubator (5% CO2), at 37° C. After trypsinization, RIN5F cells were seeded at a concentration of 0.2×10^6 cells per well, in 12 well plates. The cells were grown overnight to 80% confluence and insulin secretion experiments were performed as follows (Montrose-Rafizadeh C., et al., Mol. Cell. Endo. 1997, 130, 109.; Wang, X., et al., Endocrinology 2001, 5, 1820).
The cells were washed once with PBS solution followed by 40 min. incubation in fresh Krebs-Ringer Balanced Buffer containing NaCl (115 mmol/L), KCl (4.7 mmol/L), CaCl2 (1.28 mmol/L), MgSO4.7H2O (1.2 mmol/L), KH2PO4 (1.2 mmol/L), NaHCO3 (10 mmol/L) and HEPES (25 mmol/L), containing Glucose (1.1 mM) and B.S.A (0.5%), pH 7.4. The buffer was replaced after 40 min. and the cells were incubated (37° C.) with the test peptidomimetics, at different concentration, for 30 min., both in the presence (16.7 mM) and absence (0 mM) of glucose load. The supernatant was collected and the insulin amount was measured by ultra sensitive Rat insulin ELISA kit (Crystal Chem, IL). The protein was estimated in the supernatant using Bicinchoninic Acid kit, according to the manufacturer's protocol (Sigma Aldrich, MO). The total insulin content obtained in Pico-gram (pg) was divided with the total protein (μg) in order to normalize for differences in cell density between wells.

human glucagon receptor = human glucagon receptor (human, UniProt P47871 26-477); experiment: cell-based or functional assay
Sequence of human glucagon receptor (P47871 26-477): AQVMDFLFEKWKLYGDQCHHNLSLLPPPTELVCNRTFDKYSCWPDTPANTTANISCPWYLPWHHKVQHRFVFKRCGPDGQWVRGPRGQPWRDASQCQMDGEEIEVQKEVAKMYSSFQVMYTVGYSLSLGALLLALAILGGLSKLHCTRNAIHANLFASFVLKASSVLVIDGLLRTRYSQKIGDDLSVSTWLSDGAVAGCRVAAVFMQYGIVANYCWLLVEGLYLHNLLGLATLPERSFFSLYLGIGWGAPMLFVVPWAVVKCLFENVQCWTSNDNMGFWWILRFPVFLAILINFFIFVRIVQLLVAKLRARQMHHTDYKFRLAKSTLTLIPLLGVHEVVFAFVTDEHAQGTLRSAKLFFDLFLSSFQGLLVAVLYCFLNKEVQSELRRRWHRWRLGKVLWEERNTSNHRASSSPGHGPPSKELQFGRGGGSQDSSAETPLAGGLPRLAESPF

Molecule	Insulin secretion ([1]; 0.1 nM test compd.) [pg/µg/h]	Insulin secretion ([1]; 1 nM test compd.) [pg/µg/h]	Insulin secretion ([1]; 10 nM test compd.) [pg/µg/h]	cAMP production (pmol/ml/µg prt) with saturated glucagon peptide, at 1 nM (human glucagon receptor) [pmol/ml/µg prt]	cAMP production (pmol/ml/µg prt) with saturated glucagon peptide, at 10 nM (human glucagon receptor) [pmol/ml/µg prt]	cAMP production (pmol/ml/µg prt) with saturated glucagon peptide, at 100 nM (human glucagon receptor) [pmol/ml/µg prt]	cAMP production (pmol/ml/µg prt) with saturated glucagon peptide, at 1 µM (human glucagon receptor) [pmol/ml/µg prt]	cAMP production (pmol/ml/µg prt) with saturated glucagon peptide, at 10 µM (human glucagon receptor) [pmol/ml/µg prt]
CCc1cc(OC)ccc1-c1ccc(CC(C)(NC(=O)[C@H](CC(=O)O)NC(=O)[C@H](CO)NC(=O)[C@@H](NC(=O)[C@H](Cc2ccccc2)NC(=O)[C@@H](NC(=O)CNC(=O)[C@H](CCC(N)=O)NC(=O)[C@H](CO)NC(=O)[C@H](Cc2c[nH]cn2)NC(=O)[C@@H](N)C(C)C)[C@@H](C)O)[C@@H](C)O)C(=O)NC(CCCc2ccccc2)C(N)=O)cc1 (stereo partly shown) [compound 5] (H-VHSQGTFTSD[ξαMeBip(2'-Et,4'-OMe)][ξhhPhe]-NH2)	12.1 ± 0.51	14.1 ± 0.19	28.1 ± 0.29					
CCc1cc(OC)ccc1-c1ccc(CC(C)(NC(=O)[C@H](CC(=O)O)NC(=O)[C@H](CO)NC(=O)[C@@H](NC(=O)[C@H](Cc2ccccc2)NC(=O)[C@@H](NC(=O)CNC(=O)[C@H](CCC(N)=O)NC(=O)C2(C)CCCN2C(=O)[C@H](Cc2c[nH]cn2)NC(=O)[C@@H](N)C(C)C)[C@@H](C)O)[C@@H](C)O)C(=O)NC(CCCc2ccccc2)C(N)=O)cc1 (stereo partly shown) [compound 8] (H-VH[ξαMeP]QGTFTSD[ξαMeBip(2'-Et,4'-OMe)][ξhhPhe]-NH2)	12.6 ± 0.25	15.3 ± 0.31	29.7 ± 0.48					
CCc1cc(OC)ccc1-c1ccc(CC(C)(NC(=O)[C@H](CC(=O)O)NC(=O)[C@H](CO)NC(=O)[C@@H](NC(=O)[C@H](Cc2ccccc2)NC(=O)[C@@H](NC(=O)CNC(=O)[C@H](CCC(N)=O)NC(=O)C2(NC(=O)[C@H](Cc3c[nH]cn3)NC(=O)[C@@H](N)C(C)C)CC2)[C@@H](C)O)[C@@H](C)O)C(=O)NC(CCCc2ccccc2)C(N)=O)cc1 (stereo partly shown) [compound 10] (H-VH[Ac3c]QGTFTSD[ξαMeBip(2'-Et,4'-OMe)][ξhhPhe]-NH2)	12.0 ± 0.14	14.3 ± 0.12	27.8 ± 0.32					
CCc1cc(OC)ccc1-c1ccc(CC(C)(NC(=O)[C@H](CC(=O)O)NC(=O)[C@H](CO)NC(=O)[C@@H](NC(=O)[C@H](Cc2ccccc2)NC(=O)[C@@H](NC(=O)CNC(=O)[C@H](CCC(=O)O)NC(=O)C2(NC(=O)[C@H](Cc3c[nH]cn3)NC(=O)[C@@H](N)C(C)C)CCCC2)[C@@H](C)O)[C@@H](C)O)C(=O)NC(CCCc2ccccc2)C(N)=O)cc1 (stereo partly shown) [compound 15] (H-VH[Ac5c]EGTFTSD[ξαMeBip(2'-Et,4'-OMe)][ξhhPhe]-NH2)	15.3 ± 0.19	21.2 ± 0.11	35.5 ± 0.19					
CCc1cc(OC)ccc1-c1ccc(CC(C)(NC(=O)[C@H](CC(=O)O)NC(=O)[C@H](CO)NC(=O)[C@@H](NC(=O)C(C)(Cc2ccccc2F)NC(=O)[C@@H](NC(=O)CNC(=O)[C@H](CCC(N)=O)NC(=O)C2(C)CCCN2C(=O)[C@H](Cc2c[nH]cn2)NC(=O)[C@@H](N)C(C)C)[C@@H](C)O)[C@@H](C)O)C(=O)NC(CCCc2ccccc2)C(N)=O)cc1 (stereo partly shown) [compound 20] (H-VH[ξαMeP]QGT[ξαMePhe(2-F)]TSD[ξαMeBip(2'-Et,4'-OMe)][ξhhPhe]-NH2)	11.1 ± 0.12	13.1 ± 0.13	19.0 ± 0.16					
CCc1cc(OC)ccc1-c1ccc(CC(C)(NC(=O)[C@H](CC(=O)O)NC(=O)[C@H](CO)NC(=O)[C@@H](NC(=O)C(C)(Cc2c(F)cccc2F)NC(=O)[C@@H](NC(=O)CNC(=O)[C@H](CCC(N)=O)NC(=O)[C@H](CO)NC(=O)[C@H](Cc2c[nH]cn2)NC(=O)[C@@H](N)C(C)C)[C@@H](C)O)[C@@H](C)O)C(=O)NC(CCCc2ccccc2)C(N)=O)cc1 (stereo partly shown) [compound 25] (H-VHSQGT[ξαMePhe(2,6-F2)]TSD[ξαMeBip(2'-Et,4'-OMe)][ξhhPhe]-NH2)	12.6 ± 0.20	15.9 ± 0.31	28.4 ± 0.11					
CCc1cc(OC)ccc1-c1ccc(CC(C)(NC(=O)C(C)(CC(=O)O)NC(=O)[C@H](CO)NC(=O)[C@@H](NC(=O)[C@H](Cc2ccccc2)NC(=O)[C@@H](NC(=O)CNC(=O)[C@H](CCC(N)=O)NC(=O)C2(C)CCCN2C(=O)[C@H](Cc2c[nH]cn2)NC(=O)[C@@H](N)C(C)C)[C@@H](C)O)[C@@H](C)O)C(=O)NC(CCCc2ccccc2)C(N)=O)cc1 (stereo partly shown) [compound 60] (H-VH[ξαMeP]QGTFTS[ξαMeD][ξαMeBip(2'-Et,4'-OMe)][ξhhPhe]-NH2)	15.6 ± 0.33	21.8 ± 0.16	35.6 ± 0.26					
CCc1cc(OC)ccc1-c1ccc(CC(C)(NC(=O)C(C)(CC(=O)O)NC(=O)[C@H](CO)NC(=O)[C@@H](NC(=O)C(C)(Cc2ccccc2F)NC(=O)[C@@H](NC(=O)CNC(=O)[C@H](CCC(N)=O)NC(=O)[C@H](C)NC(=O)[C@H](Cc2c[nH]cn2)NC(=O)[C@@H](N)C(C)C)[C@@H](C)O)[C@@H](C)O)C(=O)NC(CCCc2ccccc2)C(N)=O)cc1 (stereo partly shown) [compound 66] (H-VHAQGT[ξαMePhe(2-F)]TS[ξαMeD][ξαMeBip(2'-Et,4'-OMe)][ξhhPhe]-NH2)	16.5 ± 0.12	22.7 ± 0.17	36.5 ± 0.05					
CCc1cc(OC)ccc1-c1ccc(CC(C)(NC(=O)C(C)(CC(=O)O)NC(=O)[C@H](CO)NC(=O)[C@@H](NC(=O)C(C)(Cc2ccccc2F)NC(=O)[C@@H](NC(=O)CNC(=O)[C@H](CCC(=O)O)NC(=O)C(C)(C)NC(=O)[C@H](Cc2c[nH]cn2)NC(=O)[C@@H](N)C(C)C)[C@@H](C)O)[C@@H](C)O)C(=O)NC(CCCc2ccccc2)C(N)=O)cc1 (stereo partly shown) [compound 71] (H-VH[Aib]EGT[ξαMePhe(2-F)]TS[ξαMeD][ξαMeBip(2'-Et,4'-OMe)][ξhhPhe]-NH2)	15.6 ± 0.30	21.8 ± 0.11	35.6 ± 0.20					
CCc1cc(OC)ccc1-c1ccc(CC(C)(NC(=O)C(C)(CC(=O)O)NC(=O)[C@H](CO)NC(=O)[C@@H](NC(=O)C(C)(Cc2c(F)cccc2F)NC(=O)[C@@H](NC(=O)CNC(=O)[C@H](CCC(=O)O)NC(=O)[C@H](C)NC(=O)[C@H](Cc2c[nH]cn2)NC(=O)[C@@H](N)C(C)C)[C@@H](C)O)[C@@H](C)O)C(=O)NC(CCCc2ccccc2)C(N)=O)cc1 (stereo partly shown) [compound 78] (H-VHAEGT[ξαMePhe(2,6-F2)]TS[ξαMeD][ξαMeBip(2'-Et,4'-OMe)][ξhhPhe]-NH2)	16.3 ± 0.15	22.4 ± 0.21	36.2 ± 0.11					
VVH[Aib]EGTFTSD[αMeBip(OMe)][hhPhe] (not fully specified (C-terminus); printed as VVH-Aib-EGTFTSD-(αMe-Bip(OMe))-(APPA)) [Seq. ID. No. 211]				6	5	2	0	0
VVHSEGT[αMePhe(2-F)]TSD[αMeBip(OMe)][hhPhe]-NH2 [Seq. ID. No. 217]				5	2	0	0	0
VVH[Aib]EGT[αMePhe(2,6-F2)]TSD[αMeBip(OMe)][hhPhe]-NH2 [Seq. ID. No. 227]				19	17	15	14	12
VVH[αMeP]QGT[αMePhe(2-F)]TSD[αMeBip(OMe)][hhPhe]-NH2 [Seq. ID. No. 216]				0	0	0	0	0
VVHSEGTFTSD[αMeBip(OMe)][hhPhe] (not fully specified (C-terminus); printed as VVHSEGTFTSD-(αMe-Bip(OMe))-(APPA)) [Seq. ID. No. 209]				0	0	0	0	0
